Literature values, collected in patent publication US5529986A, “Conjugate, its preparation and use and a substrate prepared with the conjugate” (priority 1991, dated 1996).

Conditions: heparin used for standard graphs

Substance: heparin
- Known specific biological activity: 180 I.U./mg
